What was measured:
C. suis merozoites = assay: Merozoite replication (growth) inhibition in infected IPEC-1 cultures, free merozoites counted 9 dpi; type: cell-based, Cystoisospora suis; conditions: for Decrease of total merozoite counts: 400 nM once at 2 dpi, vs DMSO-only and no-treatment controls; for Merozoite replication at 9 dpi: 50 nM, P < 0.05 vs DMSO-only and no-treatment
Experimental: The laboratory strain C. suis Wien I ([Joachim and Mundt, 2011]), was maintained by passage in suckling piglets every 3–6 months and infectivity in vivo was assessed regularly at the Institute of Parasitology, University of Veterinary Medicine, Vienna. Oocysts were purified from collected feces, brought to sporulation and stored as described elsewhere ([Worliczek et al., 2013]). For in vitro studies, sporozoites were excysted ([Worliczek et al., 2013]), enumerated with a hemocytometer and used immediately for infection of semi-permanent intestinal porcine epithelial cells (IPEC-1). For in vivo studies, sporulated oocysts were washed with tap water and enumerated prior to infection of piglets.
IPEC-1 cells were maintained in culture medium at 37 °C and 5% CO2 (DHEM/HAM12 supplemented with 5% fetal calf serum and penicillin/streptomycin; Gibco via Thermo Fisher, Vienna, Austria). Cells (4 × 10^4) were used to seed 24-well plates and grown to confluence. All BKI compounds were stored as 20 mM stock solutions in 100% dimethyl sulfoxide (DMSO) at −20 °C. Cell viability in the presence of DMSO and BKIs was determined by colorimetric cell proliferation (WST-1) assays ([Shrestha et al., 2019]). In addition IPEC-1 cells were infected with serial dilutions of C. suis sporozoites, obtained after excystation to evaluate the growth curves of merozoites during 5–9 days of cultivation. To determine the effect of BKI 1369 on parasite replication, sporozoites (5 × 10^2) were added to each well one day after seeding of host cells and incubated with different concentrations of BKI 1369 at 40 °C for various time periods or a DMSO control, in triplicate.
In order to test whether BKI 1369 affects initial host cell invasion by C. suis, freshly excysted sporozoites were pre-incubated with BKI 1369 or DMSO for 6 h at 37 °C. Subsequently, sporozoites were washed with medium and used for infection of cell monolayers (5 × 10^2/well), in triplicate. Readout for both growth (merozoite replication) and invasion-inhibition experiments was microscopical evaluation by counting free merozoites 9 days post-infection (dpi) from culture supernatants. Supernatants were collected and free merozoites were counted in pooled samples at 9 dpi from quadruplicate wells in C-Chip disposable hemocytometers (NanoEnTek/Roth Lactan, Graz, Austria). All assays included DMSO and no-treatment controls in quadruplicate.
Statistical calculations for in vivo trials were performed with RStudio version 1.1.453 (RStudio Team, 2018), descriptive statistics with Microsoft Excel 2010 (Microsoft Inc., Vienna, Austria) and GraphPad Prism version 5.04 for Windows (GraphPad Software, San Diego, California USA). Differences in clinical and parasitological parameters between groups were analyzed with ANOVA in the case of normal distribution and variance homogeneity of the data, or a Kruskal-Wallis rank sum test if this was not the case. In the event of significance for the omnibus tests, parametric or non-parametric post-hoc tests for multiple comparisons were performed (according to Tukey and Conover, respectively), with P-value adjustment after Bonferroni. In vitro assays were evaluated by t-tests with significance reported at P < 0.05. For testing of efficacy in vitro, the percentage of growth/invasion inhibition was calculated as follows: % inhibition = (1−No. of merozoites counted at 9 dpi in BKI 1369 treated culture /No. of merozoites counted at 9 dpi in DMSO-only treated culture)x100

[1] = Fecal drug kinetics: BKI concentrations in pooled feces by LC-MS/MS; type: in vivo, piglets
Experimental: Additionally, to determine exposure to BKI 1369 and its metabolites, BKI 1318 and BKI 1817, pooled fecal samples per group were collected before treatment (−24 h), 2, 24 and 48 h after treatment and at the end of the study (SD 29; experiment I). Approximately 1 g of feces was soaked overnight in 3 ml phosphate buffered saline (PBS, pH 7.4). The following day, 12 ml of acetonitrile containing 100 μM propanolol as an internal standard was added and the mixture was thoroughly vortexed and centrifuged at 1000×g for 30 min. Clear supernatant was then transferred to Eppendorf tubes and concentrated in a miVac® Duo Concentrator (SP Scientific, Pennsylvania, USA) at 35 °C. Control/blank samples spiked with known amounts of target analyte were processed in tandem to provide a standard curve. The concentrated samples were shipped to the University of Washington and were stored at −20 °C until analysis by liquid chromatography-tandem mass spectrometry (LC-MS/MS) to determine fecal pharmacokinetics. All LC-MS/MS analyses were carried out on a Waters Acquity UPLC coupled with a Xevo TQS Micro and analyzed using MassLynx software (Waters Corporation, Milford, MA, USA). Extraction and LC-MS/MS conditions are described in detail in the Supplementary File S1.
Tissue and feces from vehicle control treated piglets were used as blanks or standards. Calibration curves for BKI 1369, BKI 1318, and BKI 1817 were prepared by adding 2 μL BKI in dimethylsulfoxide (DMSO) to 18 μL tissue or feces controls to generate nominal concentrations of 0.004, 0.008, 0.02, 0.04, 0.08, 0.2, 0.4, 0.8, 2, 5, 10, and 20 μM. Calibration curves were generated separately for each tissue type and feces.
5 μL of tissue homogenate curves and samples were added to tubes that contained 95 μL of 80:20 acetonitrile: water. As an internal standard, propranolol was added to each sample to a final concentration of 20 nM. Samples were dried to completion using a miVac Duo Concentrator (SP Scientific, Pennsylvania, USA) at 35 °C. Sample processing for feces was similar but utilized a slightly different process to concentrate the sample as explained in the methods. Dried Samples were sealed and shipped to the University of Washington for LC-MS/MS analysis.

[2] = Group A (20 mg BKI 1369/kg BW; 0 dpi), SD 2, −24 h (before treatment)
[3] = Group A (20 mg BKI 1369/kg BW; 0 dpi), SD 3, 2 h post first-dose
[4] = Group A (20 mg BKI 1369/kg BW; 0 dpi), SD 4, 24 h post first-dose
[5] = Group A (20 mg BKI 1369/kg BW; 0 dpi), SD 5, 48 h post first-dose
[6] = Group A (20 mg BKI 1369/kg BW; 0 dpi), SD 29, 624 h post first-dose
[7] = Group A: single treatment 20 mg BKI 1369/kg on SD 3, pooled feces
[8] = Group A: single treatment 20 mg BKI 1369/kg on SD 3, pooled feces, post dose
[9] = Group B (20 mg BKI 1369/kg BW; 2 dpi), SD 4, −24 h (before treatment)
[10] = Group B (20 mg BKI 1369/kg BW; 2 dpi), SD 5, 2 h post first-dose
[11] = Group B (20 mg BKI 1369/kg BW; 2 dpi), SD 6, 24 h post first-dose
[12] = Group B (20 mg BKI 1369/kg BW; 2 dpi), SD 7, 48 h post first-dose
[13] = Group B (20 mg BKI 1369/kg BW; 2 dpi), SD 29, 576 h post first-dose
[14] = Group B: single treatment 20 mg BKI 1369/kg on SD 5, pooled feces
[15] = Group B: single treatment 20 mg BKI 1369/kg on SD 5, pooled feces, post-dose
[16] = Group C (20 mg BKI 1369/kg BW; 2 and 4 dpi), SD 4, −24 h (before treatment)
[17] = Group C (20 mg BKI 1369/kg BW; 2 and 4 dpi), SD 5, 2 h post first-dose
[18] = Group C (20 mg BKI 1369/kg BW; 2 and 4 dpi), SD 6, 24 h post first-dose
[19] = Group C (20 mg BKI 1369/kg BW; 2 and 4 dpi), SD 7, 48/2 h post 2nd dose
[20] = Group C (20 mg BKI 1369/kg BW; 2 and 4 dpi), SD 8, 72/24 h post 2nd dose
[21] = Group C (20 mg BKI 1369/kg BW; 2 and 4 dpi), SD 9, 96/48 h post 2nd dose
[22] = Group C (20 mg BKI 1369/kg BW; 2 and 4 dpi), SD 29, 576/528 h post 2nd dose
[23] = Group C: 20 mg BKI 1369/kg on SD 5 and SD 7, pooled feces, post first-dose

Row | Compound | Decrease of total merozoite counts (C. suis merozoites) [%] | Concentration in pooled fecal samples [1, 2] [nM] | Concentration in pooled fecal samples [1, 3] [nM] | Concentration in pooled fecal samples [1, 4] [nM] | Concentration in pooled fecal samples [1, 5] [nM] | Concentration in pooled fecal samples [1, 6] [nM] | Cmax [1, 7] [nM] | Fecal Tmax [1, 8] [h] | Concentration in pooled fecal samples [1, 9] [nM] | Concentration in pooled fecal samples [1, 10] [nM] | Concentration in pooled fecal samples [1, 11] [nM] | Concentration in pooled fecal samples [1, 12] [nM] | Concentration in pooled fecal samples [1, 13] [nM] | Cmax [1, 14] [nM] | Fecal Tmax [1, 15] [h] | Concentration in pooled fecal samples [1, 16] [nM] | Concentration in pooled fecal samples [1, 17] [nM] | Concentration in pooled fecal samples [1, 18] [nM] | Concentration in pooled fecal samples [1, 19] [nM] | Concentration in pooled fecal samples [1, 20] [nM] | further results
1 | CCOc1ccc2cc(-c3nn(CC4CCNCC4)c4ncnc(N)c34)ccc2n1 [BKI 1318] | 85.1 | 0 | 0 | 300 | 400 | 0 | 400 | 48 | 0 | 0 | 0 | 700 | 0 | 700 | 48 | 0 | 0 | 300 | 1900 | 3600 | Concentration in pooled fecal samples [1, 21]: 7000 nM; Concentration in pooled fecal samples [1, 22]: 300 nM; Cmax ([1]; Group C: 20 mg BKI 1369/kg on SD 5 and SD 7, pooled feces): 7000 nM; Fecal Tmax [1, 23]: 96 h; Excretion via the feces (in words) ([1]; after oral BKI 1369, piglets): relatively low excretion via the feces
2 | CCOc1ccc2cc(-c3nn(CC4CCN(C)CC4)c4ncnc(N)c34)ccc2n1 [BKI 1369] | 96.1 | 0 | 800 | 8100 | 5500 | 0 | 8100 | 24 | 0 | 0 | 800 | 3000 | 0 | 3000 | 48 | 0 | 0 | 4500 | 37000 | 19700 | Merozoite replication at 9 dpi (C. suis merozoites; incubation 0–3 dpi): significantly inhibited merozoite replication; Merozoite replication at 9 dpi (C. suis merozoites; incubation 3–6 dpi): significantly inhibited merozoite replication; Concentrations giving significant reduction of merozoite replication at 9 dpi (C. suis merozoites; single application 2 dpi): ≥ 200 nM; Concentration in pooled fecal samples [1, 21]: 29200 nM; Concentration in pooled fecal samples [1, 22]: 0 nM; Fecal Tmax [1, 23]: 48 h; Time of fecal peak, in general ([1]; all groups, metabolite levels continued to rise beyond 48 h): 24 to 48 h

Source: publication PMC7442133, “Reduced treatment frequencies with bumped kinase inhibitor 1369 are effective against porcine cystoisosporosis” (International Journal for Parasitology: Drugs and Drug …, 2020)
